Tests used:
[1] = tested on: newly diagnosed, treatment-naïve subjects with PAH
From the text: The following safety endpoints will be used: • Treatment-emergent AEs. • AEs leading to premature discontinuation of any of the 3 study treatments. • Treatment-emergent SAEs. • Treatment-emergent deaths. • Treatment-emergent marked laboratory abnormalities. • Change from baseline in laboratory variables. • Change from baseline in vital signs.
The safety endpoints will be analyzed for the following time periods: • From Day 1 until EOMOP. • From Day 1 until start of double-blind treatment (selexipag/placebo). • From start until discontinuation of macitentan study treatment (or until EOMOP, whichever is first)+30 days safety follow up. • From start until discontinuation of tadalafil study treatment (or until EOMOP, whichever is first)+30 days safety follow up. • From start until discontinuation of double-blind treatment (or until EOMOP, whichever is first)+30 days safety follow up. • From EOMOP until EOT plus 30 days safety follow-up. • The 30 days safety follow-up.

[2] = tested on: newly diagnosed, treatment-naïve subjects with PAH; experiment: Exposure to study treatments, individual maintenance dose and maximum tolerated dose; assay type: in vivo, human; conditions: up to EOMOP; Safety Set
Description: The starting dose of double-blind selexipag or placebo on Day 15±3 is 200 μg twice daily (in the morning and in the evening). The dose is up-titrated in increments of 200 μg twice daily, usually at weekly intervals (see Table 1), until either a maximum dose of 1600 μg twice daily is reached or adverse pharmacological effects that cannot be tolerated or medically managed are experienced, whichever is first. In the event of adverse effects typical of prostanoid therapy, it is recommended not to discontinue double-blind treatment because these effects are usually transient or manageable with symptomatic treatment. If a dose that cannot be tolerated is reached, the dose should be reduced to the previous dose level.

[3] = risk TEAEs (EU Uptravi RMP) up to EOMOP

CC(C)N(CCCCOCC(=O)NS(C)(=O)=O)c1cnc(-c2ccccc2)c(-c2ccccc2)n1 [Selexipag, 2-{4-[(5,6-diphenylpyrazin-2-yl)(propan-2-yl)amino]butoxy}-N-(methanesulfonyl)acetamide]
well-tolerated: Tolerability as part of the initial triple therapy regimen ([1]; in vivo)
(25.2) %: Risk Anaemia (all PTs), % [1, 3]
1000.0 µg: Maximum tolerated dose of double-blind treatment (b.i.d), Median [2]
(9.2) %: Bleeding events: PT Epistaxis, % [1, 3]
(4.2) %: Risk Ophthalmological effects associated to retinal vascular system (all PTs), % [1, 3]
(2.5) %: Renal risk: PT Blood creatinine increased, % [1, 3]
(8.4) %: Risk Hypotension (all PTs), % [1, 3] | Risk Renal function impairment/acute renal failure (all PTs), % [1, 3]
(3.4) %: Bleeding events: PT Gastrointestinal haemorrhage, % [1, 3] | Renal risk: PT Acute kidney injury, % [1, 3]
(7.6) %: Risk Hypotension: PT Hypotension, % [1, 3]
(12.6) %: Risk Anaemia: PT Anaemia, % [1, 3]
(1.7) %: Bleeding events: PT Haematoma, % [1, 3] | Bleeding events: PT Metrorrhagia, % [1, 3] | Bleeding events: PT Upper gastrointestinal haemorrhage, % [1, 3] | Ophthalmological risk: PT Vision blurred, % [1, 3] | Risk Anaemia: PT Microcytic anaemia, % [1, 3] | Risk Pulmonary venoocclusive disease associated with pulmonary oedema (all PTs), % [1, 3]
(0.8) %: Bleeding events: PT Blood loss anaemia, % [1, 3] | Bleeding events: PT Conjunctival haemorrhage, % [1, 3] | Bleeding events: PT Contusion, % [1, 3] | Bleeding events: PT Gastrointestinal polyp haemorrhage, % [1, 3] | Bleeding events: PT Gingival bleeding, % [1, 3] | Bleeding events: PT Haematochezia, % [1, 3] | Bleeding events: PT Haemoptysis, % [1, 3] | Bleeding events: PT Haemorrhoidal haemorrhage, % [1, 3] | Bleeding events: PT Hereditary haemorrhagic telangiectasia, % [1, 3] | Bleeding events: PT Melaena, % [1, 3] | Bleeding events: PT Menorrhagia, % [1, 3] | Bleeding events: PT Vaginal haemorrhage, % [1, 3] | Bleeding events: PT Vascular rupture, % [1, 3] | GI intussusception risk: PT Small intestinal obstruction, % [1, 3] | MACE: PT Transient ischaemic attack, % [1, 3] | Medication errors: PT Accidental overdose, % [1, 3] | Ophthalmological risk: PT Blindness, % [1, 3] | Ophthalmological risk: PT Photopsia, % [1, 3] | Ophthalmological risk: PT Retinal vasculitis, % [1, 3] | Ophthalmological risk: PT Vitreous floaters, % [1, 3] | PVOD/pulmonary oedema risk: PT Pulmonary oedema, % [1, 3] | PVOD/pulmonary oedema risk: PT Pulmonary veno-occlusive disease, % [1, 3] | Renal risk: PT Glomerular filtration rate decreased, % [1, 3] | Renal risk: PT Prerenal failure, % [1, 3] | Renal risk: PT Renal failure, % [1, 3] | Renal risk: PT Renal impairment, % [1, 3] | Risk Anaemia: PT Blood loss anaemia, % [1, 3] | Risk Anaemia: PT Haematocrit decreased, % [1, 3] | Risk Anaemia: PT Red blood cell count decreased, % [1, 3] | Risk Gastrointestinal disturbances denoting intestinal intussusception (manifested as ileus or obstruction), % [1, 3] | Risk Hypotension: PT Orthostatic hypotension, % [1, 3] | Risk Light-dependent non-melanoma skin malignancies (all PTs), % [1, 3] | Risk Major adverse cardiovascular events (MACE) (all PTs), % [1, 3] | Risk Medication errors (all PTs), % [1, 3] | Skin malignancies risk: PT Basal cell carcinoma, % [1, 3]
(6.7) %: Risk Anaemia: PT Haemoglobin decreased, % [1, 3] | Risk Anaemia: PT Iron deficiency anaemia, % [1, 3]
(49.6) %: Subjects with At Least One Identified or Potential Risk AE, % [1, 3]
(21.8) %: Risk Bleeding events (all PTs), % [1, 3]
